# Experimental data taken from the supplement of paper PMC10883282.
# ± gives the standard deviation of the averaged measurements.
# What was measured:
# Assay in all cases: relative viability vs DMSO control (72 h) (fraction); higher = more viable cells
# A204 = system: A204
# How it was run: (§1)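 Sarcoma cell lines in 384-well plates, seeded to reach 80–90% confluence, were given compound after 24 h and kept 72 h at 37 °C, 5% CO2, with 0.1% DMSO vehicle and a 5 µM positive control. Relative viability came from ATPLite as percent growth, averaged over up to triplicate wells. On the rescaled values, 1 equals full and 0 equals none.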
# G401 = system: G401
# How it was run: as §1
# HS729 = system: HS729
# How it was run: as §1
# KHOS-NP = system: KHOS-NP
# How it was run: as §1
# MES-SA = system: MES-SA
# How it was run: as §1
# RD = system: RD
# How it was run: as §1
# SK-ES-1 = system: SK-ES-1
# How it was run: as §1
# SK-LMS-1 = system: SK-LMS-1
# How it was run: as §1
# SW684 = system: SW684
# How it was run: as §1
# SW872 = system: SW872
# How it was run: as §1
# SYO-1 = system: SYO-1
# How it was run: as §1
# VA-ES-BJ = system: VA-ES-BJ
# How it was run: as §1
smiles,measurement,setting,value
Cc1cn(-c2cc(NC(=O)c3ccc(C)c(Nc4nccc(-c5cccnc5)n4)c3)cc(C(F)(F)F)c2)cn1 [Nilotinib],relative viability,A204; 0.00017 µM,1 ± 0.048
same,relative viability,A204; 0.00051 µM,0.979 ± 0.045
same,relative viability,A204; 0.00152 µM,1.03 ± 0.054
same,relative viability,A204; 0.00457 µM,1.04 ± 0.035
same,relative viability,A204; 0.01372 µM,1.05 ± 0.034
same,relative viability,A204; 0.04115 µM,1.074 ± 0.0099
same,relative viability,A204; 0.1235 µM,1.01 ± 0.071
same,relative viability,A204; 0.3704 µM,0.662 ± 0.043
same,relative viability,A204; 1.111 µM,0.421 ± 0.019
same,relative viability,A204; 3.333 µM,0.34 ± 0.042
same,relative viability,A204; 10 µM,0.345 ± 0.022
same,relative viability,G401; 0.00017 µM,0.944 ± 0.034
same,relative viability,G401; 0.00051 µM,0.963 ± 0.036
same,relative viability,G401; 0.00152 µM,0.968 ± 0.024
same,relative viability,G401; 0.00457 µM,0.963 ± 0.035
same,relative viability,G401; 0.01372 µM,0.979 ± 0.021
same,relative viability,G401; 0.04115 µM,0.982 ± 0.032
same,relative viability,G401; 0.1235 µM,0.995 ± 0.013
same,relative viability,G401; 0.3704 µM,0.923 ± 0.025
same,relative viability,G401; 1.111 µM,0.865 ± 0.038
same,relative viability,G401; 3.333 µM,0.795 ± 0.021
same,relative viability,G401; 10 µM,0.737 ± 0.063
same,relative viability,HS729; 0.00017 µM,0.914 ± 0.044
same,relative viability,HS729; 0.00051 µM,0.914 ± 0.022
same,relative viability,HS729; 0.00152 µM,0.92 ± 0.024
same,relative viability,HS729; 0.00457 µM,0.915 ± 0.015
same,relative viability,HS729; 0.01372 µM,0.922 ± 0.054
same,relative viability,HS729; 0.04115 µM,0.907 ± 0.079
same,relative viability,HS729; 0.1235 µM,0.848 ± 0.059
same,relative viability,HS729; 0.3704 µM,0.792 ± 0.034
same,relative viability,HS729; 1.111 µM,0.766 ± 0.023
same,relative viability,HS729; 3.333 µM,0.656 ± 0.07
same,relative viability,HS729; 10 µM,0.737 ± 0.019
same,relative viability,KHOS-NP; 0.00017 µM,1.038 ± 0.0085
same,relative viability,KHOS-NP; 0.00051 µM,1.05 ± 0.0076
same,relative viability,KHOS-NP; 0.00152 µM,1.04 ± 0.023
same,relative viability,KHOS-NP; 0.00457 µM,1.05 ± 0.021
same,relative viability,KHOS-NP; 0.01372 µM,1.02 ± 0.018
same,relative viability,KHOS-NP; 0.04115 µM,1.02 ± 0.015
same,relative viability,KHOS-NP; 0.1235 µM,1.044 ± 0.0053
same,relative viability,KHOS-NP; 0.3704 µM,1.03 ± 0.021
same,relative viability,KHOS-NP; 1.111 µM,1.04 ± 0.0061
same,relative viability,KHOS-NP; 3.333 µM,1.02 ± 0.013
same,relative viability,KHOS-NP; 10 µM,0.929 ± 0.059
same,relative viability,MES-SA; 0.00017 µM,0.882 ± 0.011
same,relative viability,MES-SA; 0.00051 µM,0.867 ± 0.018
same,relative viability,MES-SA; 0.00152 µM,0.874 ± 0.015
same,relative viability,MES-SA; 0.00457 µM,0.875 ± 0.029
same,relative viability,MES-SA; 0.01372 µM,0.88 ± 0.021
same,relative viability,MES-SA; 0.04115 µM,0.94 ± 0.015
same,relative viability,MES-SA; 0.1235 µM,0.938 ± 0.045
same,relative viability,MES-SA; 0.3704 µM,0.93 ± 0.036
same,relative viability,MES-SA; 1.111 µM,0.891 ± 0.065
same,relative viability,MES-SA; 3.333 µM,0.659 ± 0.021
same,relative viability,MES-SA; 10 µM,0.594 ± 0.019
same,relative viability,RD; 0.00017 µM,1.06 ± 0.057
same,relative viability,RD; 0.00051 µM,1.07 ± 0.064
same,relative viability,RD; 0.00152 µM,1.09 ± 0.083
same,relative viability,RD; 0.00457 µM,1.08 ± 0.083
same,relative viability,RD; 0.01372 µM,1.11 ± 0.047
same,relative viability,RD; 0.04115 µM,1.12 ± 0.079
same,relative viability,RD; 0.1235 µM,1.11 ± 0.047
same,relative viability,RD; 0.3704 µM,1.07 ± 0.072
same,relative viability,RD; 1.111 µM,0.898 ± 0.02
same,relative viability,RD; 3.333 µM,0.731 ± 0.025
same,relative viability,RD; 10 µM,0.6531 ± 0.0034
same,relative viability,SK-ES-1; 0.00017 µM,0.966 ± 0.023
same,relative viability,SK-ES-1; 0.00051 µM,0.958 ± 0.051
same,relative viability,SK-ES-1; 0.00152 µM,0.951 ± 0.014
same,relative viability,SK-ES-1; 0.00457 µM,0.919 ± 0.039
same,relative viability,SK-ES-1; 0.01372 µM,0.954 ± 0.042
same,relative viability,SK-ES-1; 0.04115 µM,0.975 ± 0.017
same,relative viability,SK-ES-1; 0.1235 µM,0.997 ± 0.059
same,relative viability,SK-ES-1; 0.3704 µM,0.908 ± 0.025
same,relative viability,SK-ES-1; 1.111 µM,0.788 ± 0.037
same,relative viability,SK-ES-1; 3.333 µM,0.55 ± 0.0074
same,relative viability,SK-ES-1; 10 µM,0.484 ± 0.03
same,relative viability,SK-LMS-1; 0.00017 µM,0.953 ± 0.033
same,relative viability,SK-LMS-1; 0.00051 µM,0.983 ± 0.033
same,relative viability,SK-LMS-1; 0.00152 µM,1.01 ± 0.028
same,relative viability,SK-LMS-1; 0.00457 µM,1.03 ± 0.1
same,relative viability,SK-LMS-1; 0.01372 µM,1.02 ± 0.068
same,relative viability,SK-LMS-1; 0.04115 µM,1.05 ± 0.024
same,relative viability,SK-LMS-1; 0.1235 µM,1.11 ± 0.061
same,relative viability,SK-LMS-1; 0.3704 µM,1.12 ± 0.063
same,relative viability,SK-LMS-1; 1.111 µM,1.16 ± 0.038
same,relative viability,SK-LMS-1; 3.333 µM,0.978 ± 0.045
same,relative viability,SK-LMS-1; 10 µM,0.965 ± 0.027
same,relative viability,SW684; 0.00017 µM,1.04 ± 0.034
same,relative viability,SW684; 0.00051 µM,1.07 ± 0.037
same,relative viability,SW684; 0.00152 µM,1.09 ± 0.017
same,relative viability,SW684; 0.00457 µM,1.07 ± 0.028
same,relative viability,SW684; 0.01372 µM,1.07 ± 0.023
same,relative viability,SW684; 0.04115 µM,1.12 ± 0.044
same,relative viability,SW684; 0.1235 µM,1.21 ± 0.054
same,relative viability,SW684; 0.3704 µM,1.32 ± 0.024
same,relative viability,SW684; 1.111 µM,1.26 ± 0.067
same,relative viability,SW684; 3.333 µM,1.24 ± 0.085
same,relative viability,SW684; 10 µM,1.15 ± 0.046
same,relative viability,SW872; 0.00017 µM,0.959 ± 0.019
same,relative viability,SW872; 0.00051 µM,0.91 ± 0.05
same,relative viability,SW872; 0.00152 µM,0.924 ± 0.013
same,relative viability,SW872; 0.00457 µM,0.926 ± 0.049
same,relative viability,SW872; 0.01372 µM,0.948 ± 0.013
same,relative viability,SW872; 0.04115 µM,0.971 ± 0.026
same,relative viability,SW872; 0.1235 µM,1.01 ± 0.02
same,relative viability,SW872; 0.3704 µM,0.999 ± 0.048
same,relative viability,SW872; 1.111 µM,0.94 ± 0.018
same,relative viability,SW872; 3.333 µM,0.796 ± 0.022
same,relative viability,SW872; 10 µM,0.766 ± 0.029
same,relative viability,SYO-1; 0.00017 µM,0.904 ± 0.012
same,relative viability,SYO-1; 0.00051 µM,0.868 ± 0.06
same,relative viability,SYO-1; 0.00152 µM,0.899 ± 0.033
same,relative viability,SYO-1; 0.00457 µM,0.865 ± 0.054
same,relative viability,SYO-1; 0.01372 µM,0.818 ± 0.095
same,relative viability,SYO-1; 0.04115 µM,0.84 ± 0.094
same,relative viability,SYO-1; 0.1235 µM,0.802 ± 0.061
same,relative viability,SYO-1; 0.3704 µM,0.6513 ± 0.0029
same,relative viability,SYO-1; 1.111 µM,0.598 ± 0.025
same,relative viability,SYO-1; 3.333 µM,0.522 ± 0.046
same,relative viability,SYO-1; 10 µM,0.446 ± 0.018
same,relative viability,VA-ES-BJ; 0.00017 µM,1.05 ± 0.027
same,relative viability,VA-ES-BJ; 0.00051 µM,1.04 ± 0.024
same,relative viability,VA-ES-BJ; 0.00152 µM,1.04 ± 0.028
same,relative viability,VA-ES-BJ; 0.00457 µM,1.05 ± 0.028
same,relative viability,VA-ES-BJ; 0.01372 µM,1.05 ± 0.036
same,relative viability,VA-ES-BJ; 0.04115 µM,1.06 ± 0.018
same,relative viability,VA-ES-BJ; 0.1235 µM,1.08 ± 0.044
same,relative viability,VA-ES-BJ; 0.3704 µM,1.1 ± 0.028
same,relative viability,VA-ES-BJ; 1.111 µM,1.1 ± 0.016
same,relative viability,VA-ES-BJ; 3.333 µM,0.989 ± 0.03
same,relative viability,VA-ES-BJ; 10 µM,0.679 ± 0.043
